{
  "source": "patent US20120077753A1",
  "about": "“JNK INHIBITORS FOR USE IN TREATING SPINAL MUSCULAR ATROPHY” (priority 2009, published 2012)",
  "key": {"JNK3": {"molecular_target": "JNK3 (Homo sapiens, UniProt P53779)", "sequence (P53779 whole entry, species assumed)": "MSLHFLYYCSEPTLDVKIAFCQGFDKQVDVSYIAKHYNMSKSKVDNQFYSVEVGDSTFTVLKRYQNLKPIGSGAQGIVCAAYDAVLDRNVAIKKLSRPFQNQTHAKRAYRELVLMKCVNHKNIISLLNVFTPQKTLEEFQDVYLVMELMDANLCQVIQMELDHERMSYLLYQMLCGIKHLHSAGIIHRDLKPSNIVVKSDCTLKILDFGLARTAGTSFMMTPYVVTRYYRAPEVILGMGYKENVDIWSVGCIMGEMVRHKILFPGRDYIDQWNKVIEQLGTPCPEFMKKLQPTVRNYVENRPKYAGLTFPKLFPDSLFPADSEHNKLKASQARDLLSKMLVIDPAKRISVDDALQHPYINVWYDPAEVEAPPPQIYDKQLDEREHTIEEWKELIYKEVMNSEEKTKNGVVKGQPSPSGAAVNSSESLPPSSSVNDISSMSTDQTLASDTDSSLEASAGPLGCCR", "conditions": "cited from earlier work"}, "tumor necrosis factor-α": {"tested_on": "tumor necrosis factor-α", "conditions": "animal studies; cited from earlier work"}, "[1]": {"tested_on": "a range of kinases and enzymes", "conditions": "cited from earlier work"}, "Primary neurons": {"tested_on": "Primary neurons", "test": "Degeneration of primary neurons transfected with siRNA-Smn or scrambled siRNA (tubulin staining, confocal microscopy)", "format": "cell-based, mice", "protocol": "(§1) Primary neurons transfected with scrambled siRNA (Control) and SMN specific siRNA (siRNA-Smn) were treated with DMSO or SP600125 after 36 h (post-transfection). Neurons were incubated for additional 60 h, fixed and stained with antibodies to Tubulin and phospho-JNK. Stained neurons were examined by confocal microscopy. Primary neurons transfected with scrambled siRNA (Control) and SMN specific siRNA (siRNA-Smn) were treated with DMSO or SP600125 after 36 h (post-transfection). Neurons were incubated for additional 60 h, fixed and stained with antibodies to Tubulin and phospho-c-Jun. Stained neurons were examined by confocal microscopy. To determine whether JNK activity is required for neurodegeneration, the effect of JNK inhibitor (SP600125) was examine on degeneration of neurons caused by SMN-deficiency. […] The knockdown of SMN neurons treated with solvent (DMSO) results in degeneration of neurons as expected. […] To determine whether the neuroprotection is a result of JNK inhibition achieved by treatment of SP600125, the phosphorylation of c-Jun was examined. […] To determine whether activation of JNK is normal in neurons treated with siRNA and JNK inhibitor, phospho-JNK was examined because JNK is activated by phosphorylation."}, "phosphorylation of c-Jun [2]": {"tested_on": "phosphorylation of c-Jun", "test": "Phospho-c-Jun staining in primary neurons lacking SMN", "format": "cell-based, mice", "conditions": "neurons lacking SMN (siRNA-Smn), vs untreated with JNK inhibitor", "protocol": "as §1, with “Primary” for “Primary neurons transfected with scrambled siRNA (Control) and SMN specific siRNA (siRNA-Smn) were treated with DMSO or SP600125 after 36 h (post-transfection). Neurons were incubated for additional 60 h, fixed and stained with antibodies to Tubulin and phospho-JNK. Stained neurons were examined by confocal microscopy. Primary”"}, "JNK-1, -2, and -3": {"molecular_target": "JNK-1, -2, and -3", "conditions": "ATP-competitive reversible inhibitor; cited from earlier work"}, "CD4+ CD8+ thymocytes": {"tested_on": "CD4+ CD8+ thymocytes", "conditions": "animal studies; cited from earlier work"}, "phosphorylation of c-Jun [3]": {"tested_on": "phosphorylation of c-Jun", "conditions": "in cells; cited from earlier work"}, "phospho-JNK": {"tested_on": "phospho-JNK", "test": "Phospho-JNK staining in primary neurons lacking SMN", "format": "cell-based, mice", "conditions": "neurons treated with siRNA+SP600125", "protocol": "as §1, with “phospho-JNK.” for “phospho-JNK. Stained neurons were examined by confocal microscopy. Primary neurons transfected with scrambled siRNA (Control) and SMN specific siRNA (siRNA-Smn) were treated with DMSO or SP600125 after 36 h (post-transfection). Neurons were incubated for additional 60 h, fixed and stained with antibodies to Tubulin and phospho-c-Jun.”"}},
  "data": [
    {"smiles": "O=C1c2c(CCCCCNc3ccccc3)cccc2-c2n[nH]c3cccc1c23", "note": "[7-(5-7V-Phenylaminopentyl)-2H-anthra[1,9-cd]pyrazol-6-one]", "values": [
      {"measurement": "JNK3 selectivity", "setting": "JNK3", "value": "selective inhibitors of JNK3"}
    ]},
    {"smiles": "Cc1ccc(OCCCCCNc2cccc3c2C(=O)c2cccc4[nH]nc-3c24)cc1", "note": "[7-(5-(p-Tolyloxy)pentyl)amino-2H-anthra[1,9-cd]pyrazol-6-one]", "values": [
      {"measurement": "JNK3 selectivity", "setting": "JNK3", "value": "selective inhibitors of JNK3"}
    ]},
    {"smiles": "O=C(NCCCCCCCNc1cccc2c1C(=O)c1cccc3[nH]nc-2c13)c1ccccc1", "note": "[7-(7-7V-Benzoylaminoheptyl)amino-2H-anthra[1,9-cd]pyrazol-6-one]", "values": [
      {"measurement": "JNK3 selectivity", "setting": "JNK3", "value": "selective inhibitors of JNK3"}
    ]},
    {"smiles": "O=C1c2ccccc2-c2n[nH]c3cccc1c23", "note": "[SP600125, Anthra[1,9-cd]pyrazol-6(2H)-on]", "values": [
      {"measurement": "bacterial lipopolysaccharide-induced expression of tumor necrosis factor-α", "setting": "tumor necrosis factor-α", "value": "inhibited"},
      {"measurement": "selectivity vs. a range of kinases and enzymes tested", "setting": "[1]", "value": "> 20", "unit": "fold"},
      {"measurement": "neuron degeneration in control experiments", "setting": "Primary neurons; control neurons, SP600125", "value": "did not cause neuron degeneration"},
      {"measurement": "degeneration of neurons caused by SMN-deficiency", "setting": "Primary neurons; neurons transfected with siRNA-Smn, inhibitor added 36 h post-transfection, additional 60 h, vs solvent (DMSO)", "value": "marked reduction in degeneration"},
      {"measurement": "phosphorylation of c-Jun", "setting": "phosphorylation of c-Jun [2]", "value": "marked reduction in the phosphorylation of c-Jun"},
      {"measurement": "Ki", "setting": "JNK-1, -2, and -3", "value": 190, "unit": "nM"},
      {"measurement": "anti-CD3-induced apoptosis of CD4+ CD8+ thymocytes", "setting": "CD4+ CD8+ thymocytes", "value": "prevented"},
      {"measurement": "inhibition of the phosphorylation of c-Jun", "setting": "phosphorylation of c-Jun [3]", "value": "dose-dependent inhibition"},
      {"measurement": "phospho-JNK (JNK activation)", "setting": "phospho-JNK", "value": "presence of phospho-JNK"}
    ]}
  ]
}
